According to article PMC3914206:

Columns and labels:
Assay type in all cases: binding
Conditions in all cases: Compound Concentration 10 µM
panel of 442 kinases [1] = target: T1, panel of 442 kinases (Homo sapiens, UniProt P22455)
T1 construct: purchased KINOMEscan
Excerpt: (§1) We assessed the selectivity of members of this scaffold using the KINOMEscan methodology across a near comprehensive panel of 442 kinases [[18,27]].

panel of 442 kinases [2] = target: T2, panel of 442 kinases (Homo sapiens, UniProt Q9P0L2)
T2 construct: purchased KINOMEscan
Excerpt: as §1

panel of 442 kinases [3] = target: T3, panel of 442 kinases (Homo sapiens, UniProt P00519, Q252H)
T3 construct: purchased KINOMEscan
Excerpt: as §1

T1 sequence (P22455 22-802): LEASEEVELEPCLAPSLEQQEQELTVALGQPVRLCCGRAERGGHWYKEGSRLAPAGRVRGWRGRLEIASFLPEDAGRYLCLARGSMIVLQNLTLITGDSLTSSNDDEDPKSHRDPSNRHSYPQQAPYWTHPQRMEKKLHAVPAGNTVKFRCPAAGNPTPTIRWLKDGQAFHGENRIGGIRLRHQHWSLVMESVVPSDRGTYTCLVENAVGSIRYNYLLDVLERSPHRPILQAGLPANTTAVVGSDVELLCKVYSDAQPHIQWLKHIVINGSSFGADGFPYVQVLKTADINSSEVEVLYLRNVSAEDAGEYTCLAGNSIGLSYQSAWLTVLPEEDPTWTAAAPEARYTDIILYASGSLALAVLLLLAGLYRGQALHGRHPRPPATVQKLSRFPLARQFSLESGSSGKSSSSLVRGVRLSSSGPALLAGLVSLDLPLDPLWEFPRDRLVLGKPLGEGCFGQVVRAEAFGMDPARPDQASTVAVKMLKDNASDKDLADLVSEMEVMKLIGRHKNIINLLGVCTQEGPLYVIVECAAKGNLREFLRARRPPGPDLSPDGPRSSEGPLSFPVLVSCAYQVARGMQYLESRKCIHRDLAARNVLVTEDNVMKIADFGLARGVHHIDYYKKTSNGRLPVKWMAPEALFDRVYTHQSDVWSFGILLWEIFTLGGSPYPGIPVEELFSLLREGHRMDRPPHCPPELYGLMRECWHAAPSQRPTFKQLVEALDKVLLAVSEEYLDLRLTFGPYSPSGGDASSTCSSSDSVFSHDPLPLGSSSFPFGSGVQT
T2 sequence (Q9P0L2 whole entry): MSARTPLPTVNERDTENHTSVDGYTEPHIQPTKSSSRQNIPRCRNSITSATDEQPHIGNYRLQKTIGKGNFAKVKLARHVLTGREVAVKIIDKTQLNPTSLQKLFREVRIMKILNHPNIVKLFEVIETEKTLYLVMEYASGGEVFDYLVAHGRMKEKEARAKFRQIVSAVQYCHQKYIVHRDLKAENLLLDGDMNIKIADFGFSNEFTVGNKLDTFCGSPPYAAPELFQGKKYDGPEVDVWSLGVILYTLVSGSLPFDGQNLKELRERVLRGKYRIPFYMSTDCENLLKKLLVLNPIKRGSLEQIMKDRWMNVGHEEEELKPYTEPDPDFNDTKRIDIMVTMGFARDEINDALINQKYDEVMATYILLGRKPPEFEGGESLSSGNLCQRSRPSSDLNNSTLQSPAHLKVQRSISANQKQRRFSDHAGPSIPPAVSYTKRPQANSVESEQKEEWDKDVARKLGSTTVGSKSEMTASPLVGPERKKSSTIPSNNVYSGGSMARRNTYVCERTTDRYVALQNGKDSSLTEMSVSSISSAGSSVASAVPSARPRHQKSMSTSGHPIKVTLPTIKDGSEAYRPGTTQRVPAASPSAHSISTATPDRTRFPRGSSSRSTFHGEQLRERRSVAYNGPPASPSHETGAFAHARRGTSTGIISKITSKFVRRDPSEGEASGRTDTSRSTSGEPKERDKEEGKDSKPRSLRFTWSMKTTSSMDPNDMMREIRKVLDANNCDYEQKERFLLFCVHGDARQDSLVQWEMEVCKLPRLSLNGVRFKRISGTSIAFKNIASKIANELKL

Row | SMILES | KINOMEscan: FGFR4 (panel of 442 kinases [1]) | KINOMEscan: MARK1 (panel of 442 kinases [2]) | KINOMEscan: ABL1(Q252H)-nonphosphorylated (panel of 442 kinases [3]) | KINOMEscan: ABL1(Q252H)-phosphorylated (panel of 442 kinases [3])
1 | COc1cc(C(=O)N2CCC(N3CCN(C)CC3)CC2)ccc1Nc1ncc2c(n1)N1CCc3cccc(c31)C(=O)N2C [Compound 24] | 23 | 83 | – | –
2 | CCOc1cc(C(=O)N2CCC(N3CCN(C)CC3)CC2)ccc1Nc1ncc2c(n1)N(C1CCCC1)c1ccccc1C(=O)N2C [Compound 26] | 100 | 100 | 100 | 100
3 | COc1cc(C(=O)N2CCC(N3CCN(C)CC3)CC2)ccc1Nc1ncc2c(n1)N(C1CCCC1)c1ccccc1C(=O)N2C [Compound 25, 11-cyclopentyl-2-((2-methoxy-4-(4-(4-methylpiperazin-1-yl)piperidine-1-carbonyl)phenyl)amino)-5-methyl-5H-benzo[e]pyrimido[5,4-b][1,4]diazepin-6(11H)-one] | 75 | 99 | 89 | 83
4 | COc1cc(C(=O)N2CCC(N3CCN(C)CC3)CC2)ccc1Nc1ncc2c(n1)N(C)c1ccccc1C(=O)N2C [15 (LRRK2-IN-1)] | 28 | 87 | 100 | 100
